Common to all, as to assay: inhibition of tumour cell growth, NCI panel, 48 h
Assay [1] deals with OVCAR-5 ovarian.
Assay [2] has as its system ACHN renal.
For assay [3], the system named is UACC-257 melanoma.
The test system of assay [4] is SF-295 CNS.
Assay [5] has as its system CCRF-CEM leukemia.
Assay [6] has as its system DU-145 prostate.
The subject of assay [7] is SK-MEL-2 melanoma.
Assay [8] relates to HOP-92 NSCLC.
Assay [9] concerns IGROV1 ovarian.
For assay [10], the system named is LOX IMVI melanoma.

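Following 48 hours of exposure in 96-well plates, responses at five concentrations were used to interpolate endpoints linearly. GI50 marks 50% less growth. TGI marks complete inhibition of growth.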

With `N#CC(=C1CCCCC1)c1nc2ccccc2o1`, the TGI in assay [1], in assay [2], in assay [3], in assay [4], in [5] and in [6] was more than 100 µM in each case. In addition, the TGI in [7], in assay [8] and in [9] was more than 100 µM throughout.

For the molecule `Cc1ccc(N=N/C(=N/NC(=O)c2cc(Cl)ccc2C(=O)c2ccccc2)c2ccc(N(CCC#N)CCC#N)cc2C)cc1`, the TGI in assay [1] was more than 100 µM; in [2] it was more than 100 µM; in assay [3], 39.4 µM; in assay [4], 86.9 µM; in assay [5], 13.1 µM; in assay [6], 51.8 µM. The TGI is 28.2 µM in assay [7] and 41.3 µM in assay [9].

Regarding `CC(=O)Oc1cc2c(c3ncccc13)OC(C)(C)C2`, the TGI in [1] worked out at 29 µM; in [2], 23.9 µM; in [3], 29.5 µM; in [4] it was 36.1 µM; in assay [5], 28.7 µM; in assay [6] it was 28.7 µM. Besides, the TGI in assay [7] worked out at 44.6 µM; in assay [8] it was 27.1 µM; in assay [9], 12.4 µM.

Consider `O=C1CC(=O)NC(=NN2C(=O)/C(=C/c3ccccc3)N=C2c2ccccc2)N1`, for which the TGI in [1], in assay [2], in assay [3], in [4], in [5] and in assay [6] was more than 100 µM in each case. The TGI in assay [7], in assay [8] and in assay [9] was more than 100 µM throughout.

`CC(C)CCC[C@@H](C)C1CCC2[C@@H]3CC=C4C[C@@H](C(=O)NCC[N+](C)(C)CCCS(=O)(=O)[O-])CC[C@]4(C)C3CC[C@@]21C` (stereo partly specified): the TGI in assay [2] is 32.5 µM; in [10] it was 25.2 µM; in [3] it was 34.8 µM; in assay [4], 35 µM; in assay [5], 31.5 µM; in [7] it was 32.4 µM. Also, the TGI in [9] worked out at 32.6 µM.

In the case of `Cc1c2c(n(CCc3ccccc3)c1C)N(C)N=C(C#N)S2(=O)=O`, the TGI in [1], in [2], in assay [3], in assay [4], in assay [6] and in assay [7] was more than 100 µM each time. This molecule also displayed a TGI in [9] of more than 100 µM.

As to `C[C@]12Cc3cnn(-c4ccc(F)cc4)c3NC1CC[C@@H]1C2CC[C@@]2(C)C1CC[C@@H]2O` (stereo partly specified), the TGI in [1] amounted to 30.5 µM; in [2] it was 29.4 µM; in assay [3], 19.2 µM; in assay [4] it was 4.38 µM; in assay [5], 32.6 µM; in [6], 27.8 µM. Moreover, the TGI in assay [8] came out at 24.7 µM; in assay [9], 28.5 µM.

Regarding `CCOC(=O)c1nc2ccccc2nc1Nc1ccc(OC)c(OC)c1`, the TGI in [1], in assay [2], in assay [4], in assay [5], in assay [6] and in assay [7] was more than 100 µM each time. Besides, the TGI in assay [8] and in assay [9] was more than 100 µM each time.

For `O=c1[nH]c2cc([N+](=O)[O-])ccc2nc1/C(=N/Nc1ccccc1)C(O)c1ccc(C(O)/C(=N\Nc2ccccc2)c2cnc3cc([N+](=O)[O-])ccc3n2)cc1` (stereo unspecified), the TGI is 72.9 µM in assay [1]; more than 100 µM in [2]; more than 100 µM in assay [3]; more than 100 µM in assay [4]; more than 100 µM in [5]; more than 100 µM in assay [7]. For the same molecule, the TGI in [8] and in [9] was more than 100 µM in each case.

With `CC(C)(C)NC(=O)NC12CC3CC(CC(F)(C3)C1)C2`, the TGI in [1], in assay [2], in assay [10], in assay [3], in assay [5] and in assay [7] was more than 100 µM each time. The TGI in assay [8] and in assay [9] was more than 100 µM each time.

On to `COc1cc(/C=C/c2cc(/C=C/c3ccc(O)c(OC)c3)nc(N)n2)ccc1O`, for which the GI50 is 2.03 µM in [1]; 2.54 µM in assay [2]; 1.53 µM in assay [3]; 1.93 µM in assay [4]; 2.4 µM in assay [6]; 1.26 µM in [8]. The GI50 in assay [9] is 2.95 µM. The TGI was 4.33 µM in assay [1]; 7.88 µM in [2]; 3.5 µM in assay [3]; 4.54 µM in assay [4]; 6.31 µM in assay [6]; 5.19 µM in assay [8]. The molecule further had a TGI in assay [9] of 7.08 µM.

Turning to `c1ccc(C2=NOC3(c4ccccc4)SC4CCCCC4CN23)cc1` (stereo unspecified), the TGI in [1] is more than 100 µM; in assay [2] it was 70.9 µM; in assay [10], 34 µM; in [3], more than 100 µM; in assay [4], more than 100 µM; in assay [5], 31.6 µM. Further, the TGI is more than 100 µM in [7], 59.4 µM in assay [8] and 32.8 µM in assay [9].

With `COc1ccc(C2Oc3cc(OC)c(O)c(C)c3[C@H]2C)cc1` (stereo partly specified), the TGI in assay [1], in [2], in [10], in assay [3], in assay [4] and in [5] was more than 100 µM each time. Also, the TGI in assay [7], in assay [8] and in [9] was more than 100 µM throughout.

Regarding `C=C1C(=O)OC2/C=C(/C)C3CC(O)C(C)(CC(OC(=O)/C(C)=C/C)C12)O3` (stereo unspecified), the TGI in [1] is 21.6 µM; in assay [2] it was 6.71 µM; in [10], 4.4 µM; in assay [3], 17.6 µM; in assay [4] it was more than 54 µM; in assay [5] it was 8.1 µM. In addition, the TGI in [7] came to 7.34 µM; in [8] it was 8.68 µM; in assay [9] it was 18.7 µM.

As to `O=C(O)CS`, the TGI in assay [1], in assay [10], in assay [3], in [4], in assay [5] and in [7] was more than 100 µM each time. The TGI in assay [8] and in [9] was more than 100 µM in each case.

Turning to `CCN(CC)CCN1C(=O)c2c(c(-c3ccccc3)c3ccccc3c2-c2ccccc2)C1=O`, the TGI in assay [1], in assay [2], in assay [10], in assay [3], in [4] and in [5] was more than 100 µM throughout. Besides, the figures for the TGI in assay [7], in assay [8] and in assay [9] were more than 100 µM, 86.9 µM and more than 100 µM, respectively.

For the molecule `CS(=O)(=O)c1c(N)c2nc(Cl)cn2c2nc3ccccc3nc12`, the TGI in assay [1], in assay [2], in [10], in [3], in assay [4] and in assay [5] was more than 100 µM each time. For the same molecule, the TGI in [7] and in [9] was more than 100 µM each time.

Turning to `Clc1ccccc1C1=NN(c2ccccc2)C2c3ccccc3OCC12` (stereo unspecified), the TGI in [1], in [2], in [10], in assay [3], in assay [4] and in assay [5] was more than 100 µM each time. The TGI in [7], in assay [8] and in [9] was more than 100 µM throughout.

Take `CCN(CC)CCCNc1ncc(C)c2[nH]c3ccncc3c12`: the TGI was 26.7 µM in assay [1]; 14.9 µM in assay [10]; 18.5 µM in assay [3]; 29.7 µM in [4]; more than 71.5 µM in assay [5]; 23.6 µM in assay [7]. The TGI in assay [8] worked out at 26.3 µM; in assay [9], 27.3 µM.

For the molecule `CCN(CC)CCCC(C)Nc1ccnc2ccc3nn(C)nc3c12` (stereo unspecified), the TGI in assay [1] is more than 100 µM; in assay [2] it was more than 100 µM; in [10], 41.1 µM; in assay [3] it was more than 100 µM; in assay [4] it was more than 100 µM; in [5], more than 100 µM. Moreover, the TGI in [9] is more than 100 µM.

For the molecule `CN1CCCCC(C#N)(c2ccccc2)CC1` (stereo unspecified), the TGI in assay [1], in assay [2], in assay [3], in [4], in assay [5] and in [6] was more than 100 µM in each case. Also, the TGI in [8] and in assay [9] was more than 100 µM throughout.

On to `CN(CCO)c1nc(N)cc(=O)[nH]1`, for which the TGI in assay [1], in assay [2], in assay [10], in [3], in assay [4] and in [5] was more than 100 µM in each case. The TGI in assay [7], in [8] and in assay [9] was more than 100 µM each time.

For `S=P1(N2CCCCC2)Oc2ccc3ccccc3c2-c2c(ccc3ccccc23)O1`, the TGI in assay [1] was more than 100 µM; in assay [10], more than 100 µM; in assay [3], more than 100 µM; in assay [4] it was more than 100 µM; in assay [5], more than 31.6 µM; in assay [7], more than 100 µM. Further, the TGI in [8] and in [9] was more than 100 µM each time.

(Values after PubChem BioAssay (NCI).)
